pKi: −log10 of the molar value. Counter-ions that a name gives are not always drawn.
Key:
[1] = system: conscious beagle dogs; test: In vivo uroselectivity study: phenylephrine response on MAP and IUP; parameters: species or system dog; details: 3 μg/kg p.o.
Excerpt: In order to assess the uroselectivity in vivo, the effects of these compounds were studied on mean arterial pressure (MAP) and intraurethral pressure (UP) in conscious beagle dogs as per the method of Brune et al. (Pharmacol., 1996, 53:356). Briefly, male dogs were instrumented for chronic continuous measurement of arterial blood pressure by implanting a telemetry transmitter (TL11M2-D70-PCT, Data Sci. International, St. Paul, Minn. USA) into the femoral artery, two weeks prior to the study. During the recovery period, the animal was acclimatized to stay in the sling restraint. On the day of testing, overnight fasted animal was placed in the sling restraint. A Swan-Ganz. Balloon tipped catheter was introduced into the urethra at the level of prostate and the balloon was inflated (Brune. et. al. 1996). After recording the base line readings, effect of 16 μg/kg, phenylephrine (i.v.) on MAP and IUP was recorded. The response of phenylephrine to MAP and […] were recorded at 0.5, 1, 2, 3, 4, 6, 9 and 24 hours after the oral administration of vehicle or the test drug. The changes in MAP were recorded on line using Dataquest Software (Data Sci. International, St. Paul, Minn. USA). The change in phenylephrine response on […] administration after the test drug administration was calculated as percent change of that of control values. Area under curve was calculated, and the ratio of the values for MAP and IUP was used for calculating the uroselectivity (Table III).

[2] = target: T1, α1B adrenoceptor (Rattus norvegicus, UniProt P15823); test: Radioligand binding, [3H] prazosin displacement, rat liver membranes; details: read-out: Affinity (Ki) α1B (Rat Liver)
T1 construct: from tissue; host or cells: rat liver membranes
T1 sequence (P15823 1-515): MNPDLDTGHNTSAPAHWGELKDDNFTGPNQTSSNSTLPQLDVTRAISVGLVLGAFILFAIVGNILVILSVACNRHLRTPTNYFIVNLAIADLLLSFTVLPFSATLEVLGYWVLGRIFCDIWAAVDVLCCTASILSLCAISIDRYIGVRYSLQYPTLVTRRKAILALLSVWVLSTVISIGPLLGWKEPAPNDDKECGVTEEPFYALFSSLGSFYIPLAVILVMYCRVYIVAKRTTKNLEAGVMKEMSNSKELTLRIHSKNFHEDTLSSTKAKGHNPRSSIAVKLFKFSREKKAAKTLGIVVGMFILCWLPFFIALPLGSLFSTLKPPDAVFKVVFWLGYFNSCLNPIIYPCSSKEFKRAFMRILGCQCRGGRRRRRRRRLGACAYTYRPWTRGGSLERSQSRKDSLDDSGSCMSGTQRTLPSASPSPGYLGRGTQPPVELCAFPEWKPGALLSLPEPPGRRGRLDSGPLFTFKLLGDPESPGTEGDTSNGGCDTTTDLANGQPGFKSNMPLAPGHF
Summary of the method: (§1)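 Rat membranes (submaxillary for α1A, liver for α1B; 150-250 μg protein) incubated with [3H]prazosin and compound in Tris 50 mM/EDTA 5 mM pH 7.4, 1 h at 24-25° C. Nonspecific binding with 300 nM prazosin; filtration, counting; Ki via Cheng–Prusoff.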

[3] = target: T2, α1A adrenoceptor (Rattus norvegicus, UniProt P43140); test: Radioligand binding, [3H] prazosin displacement, rat submaxillary membranes; details: for pKi: [3H] prazosin displacement, rat submaxillary membranes, read-out: Affinity (Ki) α1A (Rat Submaxillary); for α1B/α1A: ratio of binding affinities, rat liver / rat submaxillary
T2 construct: from tissue; host or cells: rat submaxillary gland membranes
T2 sequence (P43140 1-466): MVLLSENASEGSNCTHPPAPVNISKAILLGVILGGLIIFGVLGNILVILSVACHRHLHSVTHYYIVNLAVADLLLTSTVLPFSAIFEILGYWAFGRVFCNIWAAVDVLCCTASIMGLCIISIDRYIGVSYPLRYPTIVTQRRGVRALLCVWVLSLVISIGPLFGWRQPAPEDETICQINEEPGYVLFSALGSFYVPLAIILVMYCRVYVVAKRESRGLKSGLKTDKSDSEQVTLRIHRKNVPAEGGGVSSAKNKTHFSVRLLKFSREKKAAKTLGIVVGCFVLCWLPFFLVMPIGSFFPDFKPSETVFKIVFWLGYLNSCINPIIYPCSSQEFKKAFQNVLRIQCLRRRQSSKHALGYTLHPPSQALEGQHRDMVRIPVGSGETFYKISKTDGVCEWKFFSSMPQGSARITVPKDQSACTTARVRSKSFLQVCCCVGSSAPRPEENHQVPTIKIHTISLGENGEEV
Summary of the method: as §1

[4] = target: T3, α1A adrenoceptor (prostate) (Rattus norvegicus, UniProt P43140); test: In vitro functional assay, isolated prostate, phenylepinephrine contraction; format: cell-based; details: for Selectivity α1B/α1A / Selectivity α1D/α1A: functional, from pKB; for Kb: rat prostate, phenylepinephrine, read-out: α Adrenoceptor Subtype (pKB) α1A (converted)
T3 construct: from tissue; host or cells: isolated prostate tissue
T3 sequence (P43140 1-466): T2 sequence (P43140 1-466)
Excerpt: (§2) In order to study selectivity of action of these compounds towards different a-adrenoceptor subtypes, the ability of these compounds to antagonise (α1D) prostate (α1A) and spleen (α1B) was studied. Aorta and spleen tissues were isolated from urethane anaesthetized (1.5 g/kg) male wister rats. Isolated tissues were mounted in organ bath containing Krebs Henseleit buffer of the following composition (mM): NaCl 118; KCl 4.7; CaCl2 2.5; MgSO4 7H2O 1.2; NaHCO3 25; KH2PO4 1.2; glucose 11.5. Buffer was maintained at 37° C. and aereated with a mixture of 95% O2 and 5% CO2. A resting tension of 2 g (aorta) or 1 g (spleen and prostate) was applied to tissues. Contractile response was monitored using a force displacement transducer and recorded on chart recorders. Tissues were allowed to equilibrate for 2 hours. At the end of equilibration period, concentration response curves to norepinephrine (aorta) and phenylepinephrine (spleen and prostate) were obtained in the absence and presence of tested compound (at concentration of […]). Antagonist affinity was calculated and expressed as pKB values in Table II.

[5] = target: T4, α1D adrenoceptor (aorta) (Rattus norvegicus, UniProt P23944); test: In vitro functional assay, isolated aorta, norepinephrine contraction; format: cell-based; details: read-out: α Adrenoceptor Subtype (pKB) α1D (converted)
T4 construct: Isolated tissues were mounted in organ bath containing Krebs Henseleit buffer; from tissue; host or cells: isolated rat aorta
T4 sequence (P23944 1-561): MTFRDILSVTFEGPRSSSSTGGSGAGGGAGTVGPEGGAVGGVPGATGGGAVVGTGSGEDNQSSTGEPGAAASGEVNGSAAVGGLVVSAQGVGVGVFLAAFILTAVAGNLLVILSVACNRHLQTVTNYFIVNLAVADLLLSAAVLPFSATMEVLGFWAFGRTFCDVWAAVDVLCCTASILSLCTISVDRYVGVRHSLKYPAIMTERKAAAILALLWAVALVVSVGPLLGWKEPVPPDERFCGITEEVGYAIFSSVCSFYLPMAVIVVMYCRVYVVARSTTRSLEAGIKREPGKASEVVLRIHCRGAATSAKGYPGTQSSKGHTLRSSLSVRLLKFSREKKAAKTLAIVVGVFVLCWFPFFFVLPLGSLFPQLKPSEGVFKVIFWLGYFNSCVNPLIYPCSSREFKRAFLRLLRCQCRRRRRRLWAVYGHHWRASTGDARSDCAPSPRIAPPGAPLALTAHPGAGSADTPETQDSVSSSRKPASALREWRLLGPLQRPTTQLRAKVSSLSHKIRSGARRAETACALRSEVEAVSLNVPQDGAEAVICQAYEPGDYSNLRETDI
Excerpt: as §2

[6] = target: T5, α1B adrenoceptor (spleen) (Rattus norvegicus, UniProt P15823); test: In vitro functional assay, isolated spleen, phenylepinephrine contraction; format: cell-based; details: read-out: α Adrenoceptor Subtype (pKB) α1B (converted)
T5 construct: Isolated tissues were mounted in organ bath containing Krebs Henseleit buffer; from tissue; host or cells: isolated rat spleen
T5 sequence (P15823 1-515): T1 sequence (P15823 1-515)
Excerpt: as §2

[7] = percent change of phenylephrine response over 24 hours

| pKi [2] | pKi [3] | α1B/α1A [3] | Selectivity α1B/α1A [4] | Selectivity α1D/α1A [4] | Kb [4] | Kb [5] | Kb [6] | SMILES | Uroselectivity Ratio IUP/MAP [1] | Area Under Curve IUP [1, 7] | Area Under Curve MAP [1, 7] | melting point |
| --- | --- | --- | --- | --- | --- | --- | --- | --- | --- | --- | --- | --- |
|  |  |  |  |  |  |  |  | CCOc1ccccc1OCCN[C@H](C)Cc1ccc(OC)c(S(N)(=O)=O)c1 (racemic) [Tamsulosin (SR), Tamsulosin, reference compound] | 1.47 | 592 | 868 |  |
| 6.98 | 9.52 | 350 | 132 | 4.8 | 0.513 nM | 2.45 nM | 67.6 nM | CC(C)Oc1ccccc1N1CCN(CCCN2C(=O)C3CC=CC(O)C3C2=O)CC1.Cl (stereo not shown) [Compound No. 41, 2-[3-{4-(2-Isopropoxyphenyl)piperazin-1-yl}propyl]-4-hydroxy-3a,4,7,7a-tetrahydro-1H-isoindole-1,3(2H)-dione hydrochloride] |  |  |  | 186 to 190 °C |
|  |  |  |  |  |  |  |  | CC(=O)OC1C=CCC2C(=O)N(CCCN3CCN(c4ccccc4OC(C)C)CC3)C(=O)C12 (stereo not shown) (as salt: hydrochloride) [Compound No. 40, 2-[3-{4-(2-Isopropoxyphenyl)piperazin-1-yllpropyl]4-acetoxy-3a,4,7,7a-tetrahydro-1H-isoindole-1,3(2H)-dione hydrochloride] |  |  |  | 224 to 227 °C |
| 7.33 | 9.59 | 181 | 0.7 | 0.38 | 0.389 nM | 0.148 nM | 0.275 nM | O=C1CCCC(=O)N1CCCN1CCN(c2ccccc2OCC(F)(F)F)CC1 [compound 03] |  |  |  |  |
| 7.57 | 9.77 | 159 | 7.07 | 0.17 | 0.182 nM | 0.0316 nM | 1.29 nM | Cl.O=C1C2CC=CCC2C(=O)N1CCCN1CCN(c2ccccc2OCC(F)(F)F)CC1 (stereo not shown) [compound 02, 2-[3-{4-(2-(2,2,2-Trifluoroethoxy)phenyl)piperazin-1-yl}propyl]-3a, 4,7,7a-tetrahydro-1H-isoindole-1,3(2H)-dione hydrochloride] |  |  |  |  |
| 6.93 | 8.77 | 69 | 60 | 4.2 | 1.66 nM | 6.92 nM | 100 nM | CCOc1ccccc1N1CCN(CCCN2C(=O)C3CC(O)C(O)CC3C2=O)CC1 (stereo not shown) [Compound No. 12, 2-[3-{4-(2-Ethoxyphenyl)piperazin-1-yl}propyl]-5,6-dihydroxy-3a,4,5,6,7,7a-hexahydro-1H-isoindole-1,3(2H)-dione] |  |  |  |  |
| 7.30 | 9.30 | 100 | 7.4 | 0.43 | 1.7 nM | 0.741 nM | 12.6 nM | Cl.O=C1C2CC=CCC2C(=O)N1CCCN1CCN(c2ccccc2OC2CCCC2)CC1 (stereo not shown) [Compound No. 43, 2-[3-{4-(2-Cyclopentyloxyphenyl)piperazin-1-yl}propyl]-3a,4,7,7a-tetrahydro-1H-isoindole-1,3(2H)-dione hydrochloride] |  |  |  |  |
| 5.32 | 8.18 | 722 | 0.24 | 5.24 | 4.17 nM | 21.9 nM | 1.02 nM | CC(C)Oc1ccccc1N1CC[N+]([O-])(CCCN2C(=O)C3CC=CCC3C2=O)CC1 (stereo not shown) [compound 08, 2-[3-{4-(2-Isopropoxyphenyl)piperazin-1-yl, 1-N-oxide}propyl]-3a,4,7,7a-tetrahydro-1H-isoindole-1,3(2H)-dione] |  |  |  |  |
| 7.39 | 9.62 | 171 | 45 | 1.4 | 0.977 nM | 1.41 nM | 43.7 nM | CC(C)Oc1ccccc1N1CCN(CCCN2C(=O)C3CC(O)C(Cl)CC3C2=O)CC1.Cl (stereo not shown) [Compound No. 28, 2-[3-{4-(2-Isopropoxyphenyl)piperazin-1-yl}propyl]-5-chloro-6-hydroxy-3a,4,5,6,7,7a-hexahydro-1H-isoindole-1,3(2H)-dione hydrochloride] |  |  |  |  |
| 6.76 | 9.07 | 201 | 22 | 0.93 | 4.57 nM | 4.27 nM | 100 nM | CC(C)Oc1cc([N+](=O)[O-])ccc1N1CCN(CCCN2C(=O)C3CC=CCC3C2=O)CC1 (stereo not shown) [Compound No. 25, 2-[3-{4-(2-Isopropoxy-4-nitrophenyl)piperazin-1-yllpropyl]-3a,4,7,7a-tetrahydro-1H-isoindole-1,3(2H)-dione hydrochloride] |  |  |  |  |

| SMILES | pKi [2] | pKi [3] | α1B/α1A [3] | Selectivity α1B/α1A [4] | Selectivity α1D/α1A [4] | Kb [4] | Kb [5] | Kb [6] | Uroselectivity Ratio IUP/MAP [1] | Area Under Curve IUP [1, 7] | Area Under Curve MAP [1, 7] | melting point |
| --- | --- | --- | --- | --- | --- | --- | --- | --- | --- | --- | --- | --- |
| CC(=O)OC1C=CC(OC(C)=O)C2C(=O)N(CCCN3CCN(c4ccccc4OC(C)C)CC3)C(=O)C12.Cl (stereo not shown) [Compound No. 73, 2-[3-{4-(2-Isopropoxyphenyl)piperazin-1-yl}propyl]-4,7-diacetoxy-3a,4,7,7a-tetrahydro-1H-isoindole-1,3(2H)-dione hydrochloride] | 6.72 | 8.07 | 23 |  |  |  |  |  |  |  |  | 176 to 177 °C |
